The values that follow come from US11414442B2, “ARF6 inhibitors and related methods” (Navigen, Inc., priority 2017, dated 2022).

Data set [1] is described as follows: Solubility of ARF6 prodrugs in various vehicles (Table 4). It counts as physicochemical.
In data set [2] the test system is LPS-induced acute lung injury (ALI). Nature of the data set: Mouse model of LPS-induced ALI, BALF cell count and BALF protein. In kind it is in vivo. The note with it: dexamethasone 5 mg/kg IP at T=0 and 6, positive control in the experiments of the compound of that line; mean ± SEM. As for the experimental part:
LPS was instilled into the trachea of anesthetized mice. […] The efficacy endpoints were total cell counts and total protein in BALF. All studies were conducted using vehicle negative controls and dexamethasone (5 mg/kg IP at T=0 and 6) as a positive control. Data were analyzed by 1-way ANOVA followed by Tukey's multiple comparison test (GRAPHPAD PRISM® software, version 6.05). […] Reductions in BALF total protein were also observed. […]

Data set [3] deals with T1, ARF6 (Homo sapiens, UniProt P62330). The data set is described as follows: ARF6 inhibition, biochemical fluorometric nucleotide exchange assay. From the text: These ARF6 inhibitors were discovered using a high-throughput biochemical, fluorometric nucleotide exchange assay to screen 100,000 compounds from a commercially available compound library. Medicinal chemistry optimization efforts have also been conducted. In some embodiments, the clinical potential of the discovered small molecule ARF6 inhibitors can be limited by poor solubility. Accordingly, the synthesis and development of water soluble prodrugs of ARF6 inhibitors can be advantageous. […]

The nature of data set [4]: Solubility in water and PBS pH 7.4 (Tables 1 and 2). In kind it is physicochemical.
Data set [5] relates to multidrug-resistant Pseudomonas aeruginosa (PA). The data set is described as follows: Multidrug-resistant Pseudomonas aeruginosa mouse model of pneumonia. In kind it is in vivo. The note with it: NAV-AAR′ 38 and 64 mg/kg subcutaneous once daily for 6 days. As for the experimental part: NAV-AAR′ is also active in a multidrug-resistant Pseudomonas aeruginosa (PA) mouse model of pneumonia. […] NAV-AAR′ was administered by subcutaneous injection once daily for 6 days. The antibiotic meropenem was ineffective against MDR PA in this model.

Data set [6] deals with LPS-induced endotoxic shock. The conditions noted are these: LPS 25 mg/kg IP, peptide IV; cited from earlier work.
For data set [7], the target named is T1, ARF6. The note with it: HMVEC-D cells; cited from earlier work.
Data set [8] deals with VE-cadherin. The note with it: cited from earlier work.
In data set [9] the test system is vascular leak. The conditions noted are these: in vivo; cited from earlier work.
Where [10] appears, read: 20 mM Na citrate buffer, pH 3.1, aqueous buffer, kinetic from dmso stock, diluted from 10 mM solution in DMSO, read-out: Solubility (μM) 20 mM Na Citrate, pH 3.1.
The mark [11] stands for this setting: water, kinetic from dmso stock, diluted from 10 mM solution in DMSO, read-out: Solubility (μM) H2O.
Where [12] appears, read: Table 1, water, read-out: Solubility Water.
Setting [13] is: aqueous buffer, Table 1, PBS pH 7.4, read-out: Solubility PBS pH 7.4.
[14] abbreviates: Table 2, water, read-out: Solubility Water.

Several values for one entry are separate records, joined by “and”; a condition that tells them apart may be missing. Identical values can stand only once. Like-named read-outs stand apart in the source and are kept apart here. Where no end group is shown, it is not given here. The star is where a group is joined. Myristoyl = CCCCCCCCCCCCCC(=O)*

T1 sequence (P62330 whole entry, species assumed): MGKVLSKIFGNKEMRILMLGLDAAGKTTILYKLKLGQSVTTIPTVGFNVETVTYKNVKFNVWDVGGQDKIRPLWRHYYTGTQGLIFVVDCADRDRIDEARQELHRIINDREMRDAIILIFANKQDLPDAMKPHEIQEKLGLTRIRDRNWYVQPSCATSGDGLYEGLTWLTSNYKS

A word on the solubility: it is how much of the substance goes into solution per volume. With `NCC(=O)Oc1cc([N+](=O)[O-])ccc1-c1cc(=O)[nH]c2c(-c3ccc(Cl)cc3)c(Cc3ccccc3)nn12.O=C(O)C(F)(F)F` [Example III, [2-[2-Benzyl-3-(4-chlorophenyl)-5-oxo-4H-pyrazolo[1,5-a]pyrimidin-7-yl]-5-nitro-phenyl] 2-aminoacetate trifluoroacetate], the figures for the solubility in data set [1] (setting [10]) and in data set [1] (setting [11]) were 325 µM and 375 µM, respectively.
Consider `C[C@@H]1C[C@H]2[C@@H]3CCC4=CC(=O)C=C[C@]4(C)[C@@]3(F)[C@@H](O)C[C@]2(C)[C@@]1(O)C(=O)CO` [DEX, dexamethasone, reference compound], for which the “percent reduction in LPS-induced increase in BALF cell count, DEX” value in data set [2] is 64 ± 9% and 74 ± 5% and 63 ± 4% and 59 ± 5% and 70 ± 7%.
A word on the IC50: it is the concentration that inhibits the measured activity by half. For `O=c1cc(-c2ccccc2O)n2nc(CN3CCOCC3)c(-c3ccc(Cl)cc3)c2[nH]1` [NAV-G], the IC50 in data set [3] (Table 1, read-out: ARF6 IC50) was greater than 50 µM. In addition, the values for the solubility in [4] (setting [12]) and in data set [4] (setting [13]) were 56 µM and 82 µM, respectively.
Consider `O=c1cc(-c2ccccc2O)n2nc(C(F)(F)F)c(-c3ccc(Cl)cc3)c2[nH]1` [NAV-M], for which, in data set [3] (Table 1, read-out: ARF6 IC50), the half-maximal inhibitory concentration (IC50) was 10 µM. Also, the figures for the solubility in data set [4] (setting [12]) and in data set [4] (setting [13]) were 4 µM and 43 µM, respectively.
Consider `Cc1ccc(-c2c[nH]c3c(-c4ccc(Cl)cc4)c(Cc4ccccc4)nn3c2=O)c(O)c1` [NAV-AAC′], for which the 50% inhibitory concentration (IC50) in [3] (Table 2, read-out: ARF6 IC50) was found to be 3.3 µM. Moreover, the solubility in data set [4] (setting [14]) is less than 1 mg/mL.
In the case of `C[C@@H](O)[C@H]1C(=O)N2C(C(=O)O)=C(S[C@@H]3CN[C@H](C(=O)N(C)C)C3)[C@H](C)[C@H]12` [meropenem, reference compound], in data set [5], the “survival in MDR PA pneumonia” value is recorded as “ineffective”.
Turning to “MyrARF6 2-13: myristoylated peptide composed of amino acids 2-13 of ARF6, understood to inhibit ARF nucleotide exchange (Myristoyl-GKVLSKIFGNKE; UniProt P62330 2-13, looked up, fragment)”, the survival during endotoxemia result in [6] is listed as “enhanced survival”. In data set [7], the ARF6 activation result is “reduced ARF6 activation”. Further, in data set [8], the “VE-cadherin at cell junctions” value is “increased VE-cadherin at cell junctions”. In addition, the “leak of Evans blue dye from the blood into lungs and kidneys” value in data set [9] was “prevented the leak”.
For the compound `Cc1ccc(-c2cc(=O)[nH]c3c(-c4ccc(Cl)cc4)c(Cc4ccccc4)nn23)c(OP(=O)(O)O)c1` [NAV-AAQ], in [3] (Table 1, read-out: ARF6 IC50), the IC50 worked out at 4.6 µM. Moreover, in data set [4] (setting [12]), the solubility was greater than 50 mg/mL.
With `N#Cc1ccc(-c2cc(=O)[nH]c3c(-c4ccc(Cl)c(Cl)c4)c(C(F)(F)F)nn23)c(O)c1` [NAV-P], the IC50 in [3] (Table 1, read-out: ARF6 IC50) was 1.4 µM. Besides, the solubility came to 5.75 µM in data set [4] (setting [12]) and 19.6 µM in data set [4] (setting [13]).
Regarding `O=c1c(-c2ccc(F)cc2OP(=O)([O-])[O-])c[nH]c2c(-c3ccc(Cl)cc3)c(Cc3ccccc3)nn12.[Na+].[Na+]` [NAV-AAP′], the half-inhibitory concentration (IC50) in data set [3] (Table 2, read-out: ARF6 IC50) was determined as 9.2 µM. Also, in [4] (setting [14]), the solubility is greater than 50 mg/mL.
`O=c1cc(-c2ccccc2O)n2nc(C(F)(F)F)c(C3CCCCC3)c2[nH]1` [NAV-E]: the concentration for half-maximal inhibition (IC50) in data set [3] (Table 1, read-out: ARF6 IC50) was 12 µM. Further, the values for the solubility in data set [4] (setting [12]) and in [4] (setting [13]) were less than 1 µM and 68 µM, respectively.
The corresponding values for `O=c1cc(-c2ccc(Cl)cc2O)n2nc(C3CC3)c(-c3ccc(Cl)c(Cl)c3)c2[nH]1` [NAV-J] are 12 µM, less than 1 µM and less than 1 µM.
The corresponding values for `O=c1cc(-c2ccc(F)cc2O)n2nc(C(F)(F)F)c(-c3ccc(Cl)cc3)c2[nH]1` [NAV-AY] are 6.2 µM, 4.5 µM and 70 µM.
The corresponding values for `O=c1cc(-c2ccc(Cl)cc2O)n2nc(C(F)(F)F)c(C3CCCCC3)c2[nH]1` [NAV-F] are 4.9 µM, less than 1 µM and 21 µM.
With `N#Cc1ccc(-c2cc(=O)[nH]c3c(-c4ccc(Cl)cc4)c(Cc4ccccc4)nn23)c(OC(=O)[C@@H](N)CCCCN)c1` [NAV-AAD], the half-inhibitory concentration (IC50) in data set [3] (Table 1, read-out: ARF6 IC50) worked out at 2.9 µM. Also, the solubility in data set [4] (setting [12]) was 300 µM; in [4] (setting [13]), less than 1 µM.
The corresponding values for `O=c1cc(-c2ccccc2O)n2nc(Cc3ccccc3)c(-c3ccc(Cl)cc3)c2[nH]1` [NAV-C] are 7.2 µM, 9.2 µM and 1.4 µM.
The corresponding values for `N#Cc1ccc(-c2cc(=O)[nH]c3c(-c4ccc(Cl)c(Cl)c4)c(C4CC4)nn23)c(OC(=O)[C@@H](N)CCCCN)c1` [NAV-AB] are 2.4 µM, 500 µM and less than 1 µM.
The corresponding values for `NCCCC[C@H](N)C(=O)Oc1ccccc1-c1cc(=O)[nH]c2c(-c3ccc(Cl)c(Cl)c3)c(C(F)(F)F)nn12` [NAV-AG] are 26 µM, greater than 500 µM and 435 µM.
Consider `N#Cc1ccc(-c2cc(=O)[nH]c3c(-c4ccc(Cl)c(Cl)c4)c(C4CC4)nn23)c(O)c1` [NAV-S], for which, in data set [3] (Table 1, read-out: ARF6 IC50), the IC50 was 2 µM. Moreover, the solubility in [4] (setting [12]) is 10.2 µM; in data set [4] (setting [13]), 14 µM.
With `C[C@H](N)C(=O)Oc1cc([N+](=O)[O-])ccc1-c1cc(=O)[nH]c2c(-c3ccc(Cl)cc3)c(Cc3ccccc3)nn12.O=C(O)C(F)(F)F` [Example V, [2-[2-Benzyl-3-(4-chlorophenyl)-5-oxo-4H-pyrazolo[1,5-a]pyrimidin-7-yl]-5-nitro-phenyl] (2S)-2-aminopropanoate trifluoroacetate], the IC50 in [3] (Table 4, read-out: ARF6 inhibition IC50) is 1.9 µM. Moreover, the solubility is 160 µM in data set [1] (setting [10]); 5.4 µM in data set [1] (0.1% Tween 80 in D5W, aqueous with cosolvent or surfactant or cyclodextrin, kinetic from dmso stock, diluted from 10 mM solution in DMSO, read-out: Solubility (μM) 0.1% Tween 80 in D5W); less than 1 µM in data set [1] (DPBS, pH 7.4, aqueous buffer, kinetic from dmso stock, diluted from 10 mM solution in DMSO, read-out: Solubility (μM) DPBS, pH 7.4); 20 µM in data set [1] (saline or isotonic, thermodynamic from solid, D5W, prepared from powder, read-out: Solubility (μM) D5W Prepared from powder); 150 µM in data set [1] (setting [11]).
Turning to `O=c1cc(-c2ccc([N+](=O)[O-])cc2O)n2nc(C3CC3)c(-c3ccc(Cl)c(Cl)c3)c2[nH]1` [NAV-L], the half-maximal inhibitory concentration (IC50) in data set [3] (Table 1, read-out: ARF6 IC50) turned out to be 6.2 µM. For the same compound, the solubility was less than 1 µM in [4] (setting [12]) and 20 µM in data set [4] (setting [13]).
The corresponding values for `O=c1cc(-c2ccc(F)cc2O)n2nc(Cc3ccccc3)c(-c3ccc(Cl)cc3)c2[nH]1` [NAV-AD] are 2.4 µM, less than 1 µM and less than 1 µM.
